Results from patent US20100267712A1, “ISOINDOLINE COMPOUNDS FOR THE TREATMENT OF SPINAL MUSCULAR ATROPHY AND OTHER USES” (The United States of America, as represented by the …, priority 2007, published 2010).

SMILES	melting point
Cn1ccc2cc(N3Cc4ccc(OC(F)(F)Br)cc4C3=O)ccc21 [Example 3, 6-(bromodifluoromethoxy)-2-(1-methyl-1H-indol-5-yl)isoindolinl-one]	185 to 186 °C
Cn1ccc2cc(N3Cc4ccc(O)cc4C3=O)ccc21 [Example 5, 6-hydroxy-2-(1-methyl-1H-indol-5-yl)isoindolin-1-one]	230 to 235 °C
CCOc1ccc2c(c1)C(=O)N(c1ccc3c(ccn3C)c1)C2 [Example 6, 6-ethoxy-2-(1-methyl-1H-indol-5-yl)isoindolin-1-one]	185 to 190 °C
Cn1ccc2cc(N3Cc4ccc(OCC(F)(F)F)cc4C3=O)ccc21 [Example 7, 2-(1-methyl-1H-indol-5-yl)-6-(2,2,2-trifluoroethoxy)isoindolin-1-one]	182 to 188 °C
Cn1ccc2cc(N3Cc4ccc(Br)cc4C3=O)ccc21 [Example 11, 6-bromo-2-(1-methyl-1H-indol-5-yl)isoindolin-1-one]	235 to 237 °C
CC(C)Cc1ccc2c(c1)C(=O)N(c1ccc3c(ccn3C)c1)C2 [Example 12, 6-isobutyl-2-(1-methyl-1H-indol-5-yl)isoindolin-1-one]	193 to 194 °C
CCCCc1ccc2c(c1)C(=O)N(c1ccc3c(ccn3C)c1)C2 [Example 13, 6-butyl-2-(1-methyl-1H-indol-5-yl)isoindolin-1-one]	167 to 168 °C
CCC(C)c1ccc2c(c1)C(=O)N(c1ccc3c(ccn3C)c1)C2 (centres unmarked) [Example 15, 6-sec-butyl-2-(1-methyl-1H-indol-5-yl)isoindolin-1-one]	146 to 147 °C
Cn1ccc2cc(N3Cc4ccc(N5CCCC5)cc4C3=O)ccc21 [Example 16, 2-(1-methyl-1H-indol-5-yl)-6-(pyrrolidin-1-yl)isoindolin-1-one]	252 to 253 °C
COc1ccc2c(c1)C(=O)N(c1ccc3c(ccn3C(C)C)c1)C2 [Example 17, 2-(1-isopropyl-1H-indol-5-yl)-6-methoxyisoindolin-1-one]	144 to 148 °C
COc1ccc2c(c1)C(=O)N(c1ccc3c(c1)cc(C)n3C)C2 [Example 18, 2-(1,2-dimethyl-1H-indol-5-yl)-6-methoxyisoindolin-1-one]	209 to 213 °C
COc1ccc2c(c1)CN(c1ccc3c(ccn3C)c1)C2 [Example 19, 5-(5-methoxyisoindolin-2-yl)-1-methyl-1H-indole]	193 to 196 °C
CC(=O)Nc1cccc2c1CN(c1ccc3ccn(C)c3c1)C2=O [Example 21, N-(2-(1-methyl-1H-indol-6-yl)-1-oxoisoindolin-4-yl)acetamide]	180 to 184 °C
Cn1ccc2ccc(N3Cc4ccc(-c5cccnc5)cc4C3=O)cc21 [Example 24, 2-(1-methyl-1H-indol-6-yl)-6-(pyridin-3-yl)isoindolin-1-one]	187 to 188 °C
COc1ccc2c(c1)CN(c1ccc3sccc3c1)C2=O [Example 25, 2-(benzo[b]thiophen-5-yl)-5-methoxyisoindolin-1-one]	183 to 186 °C
O=C1c2cc(O)ccc2CN1c1ccc2sccc2c1 [Example 26, 2-(benzo[b]thiophen-5-yl)-6-hydroxyisoindolin-1-one]	226 to 228 °C

SMILES	melting point
Nc1ccc2c(c1)C(=O)N(c1ccc3ccsc3c1)C2 [Example 29, 6-amino-2-(benzo[b]thiophen-6-yl)isoindolin-1-one]	233 to 236 °C
CN(C)c1ccc2c(c1)C(=O)N(c1ccc3c(c1)CCN3C)C2 [Example 31, 6-(dimethylamino)-2-(1-methylindolin-5-yl)isoindolin-1-one]	268 to 270 °C
COc1ccc2c(c1)C(=O)N(c1ccc3c(ccc[n+]3[O-])c1)C2 [Example 33, 6-(6-methoxy-1-oxoisoindolin-2-yl)quinoline 1-oxide]	251 to 255 °C
COc1ccc2c(c1)C(=O)N(c1ccc3[nH]c(=O)ccc3c1)C2 [Example 34, 6-(6-methoxy-1-oxoisoindolin-2-yl)quinolin-2(1H)-one]	305 to 310 °C
COc1ccc2c(c1)C(=O)N(c1ccc3[nH]c(=O)[nH]c3c1)C2 [Example 35, 5-(6-methoxy-1-oxoisoindolin-2-yl)-1H-benzo[d]imidazol-2(3H)-one]	355 to 360 °C (dec.)
COc1ccc2c(c1)C(=O)N(c1ccc3c(c1)n(C)c(=O)n3C)C2 [Example 36, 5-(6-methoxy-1-oxoisoindolin-2-yl)-1,3-dimethyl-1H-benzo[d]imidazol-2(3H)-one]	268 to 270 °C
COc1ccc2c(c1)C(=O)N(c1ccc3c(c1)N(C)CCN3C)C2 [Example 38, 2-(1,4-dimethyl-1,2,3,4-tetrahydroquinoxalin-6-yl)-6-methoxyisoindolin-1-one]	137 to 142 °C
COc1ccc2c(c1)C(=O)N(c1ccc(C(C)C)cn1)C2 [Example 39, 2-(5-isopropylpyridin-2-yl)-6-methoxyisoindolin-1-one]	109 to 110 °C
COc1ccc2c(c1)C(=O)N(c1cnc3c(ccn3C)c1)C2 [Example 43, 6-methoxy-2-(1-methyl-1H-pyrrolo[2,3-b]pyridin-5-yl)isoindolin-1-one]	198 to 199 °C
COc1ccc2c(c1)C(=O)N(c1ccc3c(cnn3C)c1)C2 [Example 44, 6-methoxy-2-(1-methyl-1H-indazol-5-yl)isoindolin-1-one]	213 to 214 °C
O=C1c2ccccc2CN1c1ccc2c(c1)OCCO2 [Example 46, 2-(2,3-dihydrobenzo[b][1,4]dioxin-6-yl)isoindolin-1-one]	170 to 176 °C
COc1ccc2c(c1)C(=O)N(c1ccc3ncsc3c1)C2 [Example 47, 2-(benzo[d]thiazol-6-yl)-6-methoxyisoindolin-1-one]	204 to 207 °C
COc1ccc2c(c1)C(=O)N(c1ccc3nc(C)ncc3c1)C2 [Example 49, 6-methoxy-2-(2-methylquinazolin-6-yl)isoindolin-1-one]	245 to 247 °C
O=C1c2cc(OC(F)F)ccc2CN1c1ccc2c(c1)CCC2 [Example 50, 6-(difluoromethoxy)-2-(2,3-dihydro-1H-inden-5-yl)isoindolin-1-one]	137 to 139 °C
COc1ccc2c(c1)C(=O)N(c1ccc3cccnc3c1)C2 [Example 51, 6-methoxy-2-(quinolin-7-yl)isoindolin-1-one]	220 to 223 °C

The remaining lines, values ahead:

melting point	SMILES
180 to 182 °C	Cn1ccc2cc(N3Cc4ccc(OC(F)F)cc4C3=O)ccc21 [Example 2, 6-(difluoromethoxy)-2-(1-methyl-1H-indol-5-yl)isoindolin-1-one]
200 to 205 °C	Cn1ccc2cc(N3Cc4ccc(OC(F)(F)C(F)Cl)cc4C3=O)ccc21 (centres unmarked) [Example 4, 6-(2-chloro-1,1,2-trifluoroethoxy)-2-(1-methyl-1H-indol-5-yl)isoindolin-1-one]
275 to 280 °C	CC(=O)Nc1ccc2c(c1)C(=O)N(c1ccc3c(ccn3C)c1)C2 [Example 8, N-(2-(1-methyl-1H-indol-5-yl)-3-oxoisoindolin-5-yl)acetamide]
198 to 203 °C	Cn1ccc2cc(N3Cc4c(N)cccc4C3=O)ccc21 [Example 9, 4-amino-2-(1-methyl-1H-indol-5-yl)isoindolin-1-one]
239 to 243 °C	CC(=O)Nc1cccc2c1CN(c1ccc3c(ccn3C)c1)C2=O [Example 10, N-(2-(1-methyl-1H-indol-5-yl)-1-oxoisoindolin-4-yl)acetamide]
144 to 145 °C	C/C=C(/C)c1ccc2c(c1)C(=O)N(c1ccc3c(ccn3C)c1)C2 [Example 14, (Z)-6-(but-2-en-2-yl)-2-(1-methyl-1H-indol-5-yl)isoindolin-1-one]
158 to 161 °C	COc1ccc2c(c1)C(=O)N(c1ccc3ccn(C)c3c1)C2 [Example 20, 6-methoxy-2-(1-methyl-1H-indol-6-yl)isoindolin-1-one]
218 to 220 °C	COc1ccc2c(c1)C(=O)N(c1ccc3ccn(CC#N)c3c1)C2 [Example 22, 2-(6-(6-methoxy-1-oxoisoindolin-2-yl)-1H-indol-1-yl)acetonitrile]
127 to 129 °C	CCOc1ccc2c(c1)C(=O)N(c1ccc3sccc3c1)C2 [Example 27, 2-(benzo[b]thiophen-5-yl)-6-ethoxyisoindolin-1-one]
195 to 197 °C	CN(C)c1ccc2c(c1)C(=O)N(c1ccc3ccsc3c1)C2 [Example 30, 2-(benzo[b]thiophen-6-yl)-6-(dimethylamino)isoindolin-1-one]
194 to 197 °C	COc1ccc2c(c1)C(=O)N(c1ccc3ncccc3c1)C2 [Example 32, 6-methoxy-2-(quinolin-6-yl)isoindolin-1-one]
159 to 163 °C	COc1ccc2c(c1)C(=O)N(c1ccc3c(c1)NCCN3)C2 [Example 37, 6-methoxy-2-(1,2,3,4-tetrahydroquinoxalin-6-yl)isoindolin-1-one]
230 to 234 °C	COc1ccc2c(c1)C(=O)N(c1ccc3c(ccn3C)n1)C2 [Example 41, 6-methoxy-2-(1-methyl-1H-pyrrolo[3,2-b]pyridin-5-yl)isoindolin-1-one]
205 to 210 °C	COc1ccc2c(c1)C(=O)N(c1cc3ccn(C)c3cn1)C2 [Example 42, 6-methoxy-2-(1-methyl-1H-pyrrolo[2,3-c]pyridin-5-yl)isoindolin-1-one]
123 to 127 °C	COc1ccc2c(c1)C(=O)N(c1ccc3c(c1)CCCN3C)C2 [Example 45, 6-methoxy-2-(1-methyl-1,2,3,4-tetrahydroquinolin-6-yl)isoindolin-1-one]
141 to 143 °C	COc1ccc2c(c1)C(=O)N(c1ccc3ccoc3c1)C2 [Example 48, 2-(benzofuran-6-yl)-6-methoxyisoindolin-1-one]
